Data taken from the NIST ThermoML archive (doi:10.1016/j.fluid.2014.11.009).

What was measured:
[1] = xn = mol fraction of the nth substance listed; conditions: 101 kPa, Liquid; for mass density: Vibrating tube method; for viscosity: Cone and plate viscometry
[2] = 101 kPa, Liquid; for viscosity: Cone and plate viscometry; for mass density: Vibrating tube method

CN(CCO)CCO [N-methyldiethanolamine] + O
[1]
Conditions	mass density, x1 = 0.0192 [kg/m3]	mass density, x1 = 0.1168 [kg/m3]	viscosity, x1 = 0.0192 [mPa·s]	viscosity, x1 = 0.1168 [mPa·s]
293.2 K	1011.8	1043.3	–	–
298.2 K	1008.9	1040.4	–	–
303.2 K	1005.8	1037.3	1.568	6.671
313.2 K	999.7	1030.8	1.178	4.706
323.2 K	993.1	1024.1	0.796	3.057
333.2 K	983.8	1016.9	0.688	2.193
343.2 K	977.9	1009.4	–	1.589
353.2 K	970.1	1001.7	–	1.194
363.2 K	962	993.5	–	–

CN(CCO)CCO [N-methyldiethanolamine]
[2]
Conditions	mass density [kg/m3]	viscosity [mPa·s]
303.2 K	–	56.3
313.2 K	1026.7	34.44
323.2 K	1018.9	22.93

NC(N)=[NH2+].O=S(=O)([O-])C(F)(F)F [guanidinium trifluoromethanesulfonate] + O
[1]
Conditions	mass density, x1 = 0.0202 [kg/m3]	mass density, x1 = 0.2073 [kg/m3]	viscosity, x1 = 0.0018 [mPa·s]	viscosity, x1 = 0.0056 [mPa·s]	viscosity, x1 = 0.0095 [mPa·s]	viscosity, x1 = 0.0137 [mPa·s]	viscosity, x1 = 0.0181 [mPa·s]	viscosity, x1 = 0.0202 [mPa·s]	viscosity, x1 = 0.2073 [mPa·s]
293.2 K	1087.8	1125	–	–	–	–	–	–	–
298.2 K	1084	1120.3	–	–	–	–	–	–	–
303.2 K	1080.8	1116.9	0.7366	0.7996	0.8208	0.8616	0.9134	0.9855	1.361
313.2 K	1073.9	1110.6	0.6512	0.6757	0.6976	0.7326	0.8268	0.8374	1.098
323.2 K	1067.4	1103.8	0.6047	0.6289	0.6517	0.6872	0.7268	0.7438	0.9221
333.2 K	1059.3	1097.5	0.5555	0.5686	0.5834	0.6095	0.6302	0.6544	0.67
343.2 K	1050.9	1088.8	–	–	–	–	–	–	–
353.2 K	1043.2	1080	–	–	–	–	–	–	–
363.2 K	1035	1072.1	–	–	–	–	–	–	–
